Measured values: US20260109690A1, “HDAC6 INHIBITORS AND METHOD OF THEIR USE” (Baerenkraft Therapeutics, LLC., priority 2024, published 2026)

Key:
[1] = test system: acetyl-α-tubulin in SH-SY5Y neuroblastoma cells; test: ICC dose response of acetylated alpha-tubulin in SH-SY5Y neuroblastoma cells; assay type: cell-based; details: Homo sapiens, 24 h, read-out: IC50 (acetyl-α-tubulin average fluorescence intensity)
Method: Cell Seeding: Seeded at 2,000 cells/well in 384-well plates 24-hours prior to compound treatment
Compound Treatment: 24-hour
HDAC6 inhibitor compounds tested (1 control and 6 experimental)
9-point dose-response curves for all compounds, starting at 30 μM with 3-fold serial dilutions
4 technical replicate wells per condition tested
Cells were seeded in 90 μL media. 10 μL of 10× compound solutions added to 90 μL media for 24-hours
Fixation: 4% PFA for 15 minutes (after removing all media and washing with DPBS+0.1% Tween-20)
Permeabilization: 0.1% Triton X-100 for 20 minutes
Primary antibody: acetyl-α-tubulin (Lys40/D20G3; Cell Signaling Technologies, #5335S) 1:1000 dilution in DPBS+5% goat serum+0.1% Tween-20, 1 hour at room temp on orbital shaker
Secondary antibody: Goat anti-Rabbit IgG (H+L) Highly Cross-Adsorbed Secondary Antibody, Alexa Fluor™ Plus 488, Catalog #A32731, 1:1000 dilution+Hoechst 33342, 1:10,000 dilution in DPBS+5% goat serum+0.1% Tween-20, 1 hour at room temp on orbital shaker
High-content imaging system: Image Xpress Micro Confocal from Molecular Devices […]
Integrated fluorescence intensity of acetyl-α-tubulin was calculated using an automated image-analysis algorithm in Meta Xpress software
Average intensity per cell was calculated by dividing the integrated fluorescence intensity by the number of nuclei. […]

HDAC3 = HDAC3 (Homo sapiens, UniProt O15379); test: HDAC selectivity panel: HDAC3; assay type: biochemical
Sequence of HDAC3 (O15379 whole entry, species assumed): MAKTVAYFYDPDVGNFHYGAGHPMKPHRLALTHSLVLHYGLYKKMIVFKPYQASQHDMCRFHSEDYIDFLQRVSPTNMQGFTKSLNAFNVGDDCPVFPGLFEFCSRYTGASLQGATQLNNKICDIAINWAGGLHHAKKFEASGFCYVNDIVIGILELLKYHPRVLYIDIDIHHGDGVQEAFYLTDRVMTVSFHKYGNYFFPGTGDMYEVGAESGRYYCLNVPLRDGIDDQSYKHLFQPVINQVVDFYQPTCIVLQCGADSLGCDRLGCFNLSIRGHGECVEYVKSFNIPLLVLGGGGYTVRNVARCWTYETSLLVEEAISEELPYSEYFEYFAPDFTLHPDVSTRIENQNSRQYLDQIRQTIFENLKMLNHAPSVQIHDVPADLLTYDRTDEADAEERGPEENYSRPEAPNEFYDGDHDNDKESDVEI
Sequence of HDAC3 (Q9Y618 395-489 partner limits assumed, species assumed): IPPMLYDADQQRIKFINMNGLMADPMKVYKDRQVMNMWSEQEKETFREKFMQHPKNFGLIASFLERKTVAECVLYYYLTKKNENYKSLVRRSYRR

HDAC10 = target: T1, HDAC10 (Homo sapiens, UniProt Q969S8); test: HDAC selectivity panel: HDAC10; assay type: biochemical
T1 sequence (Q969S8 1-669): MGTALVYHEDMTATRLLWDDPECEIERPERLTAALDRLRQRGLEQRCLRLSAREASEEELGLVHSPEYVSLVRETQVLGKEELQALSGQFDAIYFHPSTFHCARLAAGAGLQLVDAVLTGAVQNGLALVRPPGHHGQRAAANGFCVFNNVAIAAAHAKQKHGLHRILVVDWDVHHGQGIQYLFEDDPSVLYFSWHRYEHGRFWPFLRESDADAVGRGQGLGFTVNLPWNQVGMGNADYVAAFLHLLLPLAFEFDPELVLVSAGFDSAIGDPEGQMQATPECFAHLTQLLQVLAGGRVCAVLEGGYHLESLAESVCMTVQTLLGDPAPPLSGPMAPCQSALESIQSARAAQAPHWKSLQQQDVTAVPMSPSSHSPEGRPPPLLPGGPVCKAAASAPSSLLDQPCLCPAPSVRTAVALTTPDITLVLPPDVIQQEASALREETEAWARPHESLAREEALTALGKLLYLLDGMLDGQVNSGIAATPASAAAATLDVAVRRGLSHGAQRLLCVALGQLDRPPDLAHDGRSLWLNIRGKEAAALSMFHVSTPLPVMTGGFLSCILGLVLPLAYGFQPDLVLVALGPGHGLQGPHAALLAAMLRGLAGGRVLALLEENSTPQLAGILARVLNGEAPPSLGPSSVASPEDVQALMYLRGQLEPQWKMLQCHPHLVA

HDAC8 = target: T2, HDAC8 (Homo sapiens, UniProt Q9BY41); test: HDAC selectivity panel: HDAC8; assay type: biochemical
T2 sequence (Q9BY41 1-377): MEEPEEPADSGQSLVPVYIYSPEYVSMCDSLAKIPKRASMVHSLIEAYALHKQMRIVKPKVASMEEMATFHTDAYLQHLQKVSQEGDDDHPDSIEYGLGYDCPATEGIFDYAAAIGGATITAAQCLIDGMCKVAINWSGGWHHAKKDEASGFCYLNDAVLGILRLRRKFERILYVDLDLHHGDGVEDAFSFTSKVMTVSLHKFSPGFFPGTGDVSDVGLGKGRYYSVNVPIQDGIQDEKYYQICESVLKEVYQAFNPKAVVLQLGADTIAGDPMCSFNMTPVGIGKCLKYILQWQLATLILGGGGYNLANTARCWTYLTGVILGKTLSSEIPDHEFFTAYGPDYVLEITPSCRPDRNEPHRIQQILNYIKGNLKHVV

HDAC6 = target: T3, HDAC6 (Homo sapiens, UniProt Q9UBN7); test: Biochemical HDAC6 inhibitory activity assay; details: read-out: HDAC6 IC50
T3 sequence (Q9UBN7 1-1215): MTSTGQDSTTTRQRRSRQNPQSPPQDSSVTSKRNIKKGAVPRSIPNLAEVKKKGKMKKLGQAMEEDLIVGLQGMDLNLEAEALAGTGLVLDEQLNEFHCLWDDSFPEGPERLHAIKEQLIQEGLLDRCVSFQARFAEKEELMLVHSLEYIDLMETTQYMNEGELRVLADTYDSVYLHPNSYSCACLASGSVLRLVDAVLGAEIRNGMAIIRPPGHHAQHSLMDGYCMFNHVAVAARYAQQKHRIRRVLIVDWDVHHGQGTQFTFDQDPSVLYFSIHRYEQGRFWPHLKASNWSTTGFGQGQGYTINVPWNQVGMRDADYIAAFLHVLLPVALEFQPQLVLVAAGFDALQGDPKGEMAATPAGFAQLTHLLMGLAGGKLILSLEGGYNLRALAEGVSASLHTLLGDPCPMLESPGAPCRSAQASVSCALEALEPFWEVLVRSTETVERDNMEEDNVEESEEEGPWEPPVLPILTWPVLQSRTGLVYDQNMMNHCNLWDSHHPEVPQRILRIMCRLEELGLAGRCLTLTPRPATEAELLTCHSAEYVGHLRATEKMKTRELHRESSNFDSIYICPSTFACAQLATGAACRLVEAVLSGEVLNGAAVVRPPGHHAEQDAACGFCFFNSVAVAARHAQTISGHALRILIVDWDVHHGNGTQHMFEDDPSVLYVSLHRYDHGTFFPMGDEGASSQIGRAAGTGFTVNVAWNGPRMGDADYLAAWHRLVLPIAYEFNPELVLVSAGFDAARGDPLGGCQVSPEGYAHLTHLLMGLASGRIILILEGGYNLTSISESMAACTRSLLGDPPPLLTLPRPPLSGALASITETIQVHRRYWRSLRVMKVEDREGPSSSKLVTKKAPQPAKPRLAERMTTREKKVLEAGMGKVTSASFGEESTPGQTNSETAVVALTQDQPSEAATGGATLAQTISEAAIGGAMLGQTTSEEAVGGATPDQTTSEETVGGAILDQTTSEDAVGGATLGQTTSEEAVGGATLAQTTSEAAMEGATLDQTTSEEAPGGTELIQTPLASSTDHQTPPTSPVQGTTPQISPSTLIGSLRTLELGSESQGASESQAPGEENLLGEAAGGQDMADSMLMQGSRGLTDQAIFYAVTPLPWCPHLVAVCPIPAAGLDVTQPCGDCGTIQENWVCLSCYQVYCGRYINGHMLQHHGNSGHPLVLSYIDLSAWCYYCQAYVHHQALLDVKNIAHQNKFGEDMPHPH

HDAC1 = HDAC1 (Homo sapiens, UniProt Q13547); test: HDAC selectivity panel: HDAC1; assay type: biochemical
Sequence of HDAC1 (Q13547 whole entry, species assumed): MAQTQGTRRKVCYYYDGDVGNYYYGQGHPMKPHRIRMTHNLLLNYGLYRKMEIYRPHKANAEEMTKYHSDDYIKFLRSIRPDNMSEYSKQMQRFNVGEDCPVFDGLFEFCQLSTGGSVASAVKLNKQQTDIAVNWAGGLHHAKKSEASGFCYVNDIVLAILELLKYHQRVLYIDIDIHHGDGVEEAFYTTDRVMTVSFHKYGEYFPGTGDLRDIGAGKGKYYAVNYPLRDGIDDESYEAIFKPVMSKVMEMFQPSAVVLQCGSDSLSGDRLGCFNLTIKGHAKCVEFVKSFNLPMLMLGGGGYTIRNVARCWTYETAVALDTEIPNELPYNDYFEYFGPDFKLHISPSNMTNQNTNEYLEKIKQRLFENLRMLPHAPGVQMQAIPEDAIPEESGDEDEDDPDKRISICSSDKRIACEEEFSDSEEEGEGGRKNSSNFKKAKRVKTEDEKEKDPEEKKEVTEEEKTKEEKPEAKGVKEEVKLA

HDAC11 = target: T4, HDAC11 (Homo sapiens, UniProt Q96DB2); test: HDAC selectivity panel: HDAC11; assay type: biochemical
T4 sequence (Q96DB2 1-347): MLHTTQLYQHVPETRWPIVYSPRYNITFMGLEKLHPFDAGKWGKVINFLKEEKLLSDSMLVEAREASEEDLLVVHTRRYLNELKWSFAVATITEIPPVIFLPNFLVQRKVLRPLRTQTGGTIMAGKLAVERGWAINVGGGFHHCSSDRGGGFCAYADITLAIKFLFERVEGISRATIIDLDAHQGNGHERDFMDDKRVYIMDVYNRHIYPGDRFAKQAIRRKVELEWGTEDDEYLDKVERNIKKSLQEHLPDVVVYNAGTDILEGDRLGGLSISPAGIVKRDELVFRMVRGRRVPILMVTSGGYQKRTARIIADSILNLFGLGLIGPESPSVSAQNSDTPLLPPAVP

[2] = test system: acetyl-α-tubulin in SH-SY5Y neuroblastoma cells; test: Western blot of acetylated alpha-tubulin in SH-SY5Y neuroblastoma cells; assay type: cell-based; details: 1 μM and 10 μM, 24 hours
Method: SH-SY5Y neuroblastoma cells were seeded at 1,000,000 cells/well of three 6-well plates and incubated for 24 hours. Cells were treated with 2 control and experimental HDAC6 inhibitors at 1 μM and 10 μM for 24-hours. Following treatment, cells were lysed, and proteins extracted for western blot. Proteins were separated by gel electrophoresis and transferred to nitrocellulose membranes. Membranes were blocked and probed with primary Abs overnight.
acetyl-α-tubulin (Lys40)(D20G3); Cell Signaling Technologies, #5335S
GAPDH; Millipore Sigma, #MAB374
Membranes were probed with secondary Abs for 1 hour and then the blots were imaged using the iBright 1500 (ThermoFisher)

Row | SMILES | IC50 (HDAC6) [nM] | acetylation of α-tubulin (Western blot) [2] | other results
1 | O=C(CCCCCCNC(=O)c1cnc(N(c2ccccc2)c2ccccc2)nc1)NO [ACY-1215, ricolinostat, reference compound] |  |  | IC50 [1]: 1780 nM
2 | CC1CN(C(=O)c2ccc(Nc3nccc(-c4ccc(C(=O)NO)cc4)n3)cc2F)CCO1 (stereo not drawn) [Compound I-5, 4-(2-((3-fluoro-4-(2-methylmorpholine-4-carbonyl)phenyl)amino)pyrimidin-4-yl)-N-hydroxybenzamide] | < 1000 |  | IC50 (HDAC3): 1360 nM; IC50 (HDAC10): 73.7 nM; IC50 (HDAC8): 162 nM; IC50 (HDAC1): 1640 nM; IC50 (HDAC11): 782 nM
3 | CN1CCN(Cc2ccc(Nc3nccc(-c4ccc(C(=O)NO)cc4)n3)cc2F)CC1 [Compound I-7, 4-(2-((3-fluoro-4-((4-methylpiperazin-1-yl)methyl)phenyl)amino)pyrimidin-4-yl)-N-hydroxybenzamide] | < 1000 | induce acetylation of α-tubulin in SH-SY5Y neuroblastoma cells in a dose-dependent manner | 
4 | O=C(NO)c1ccc(-c2ccnc(Nc3ccc(CN4CCN(C5COC5)CC4)c(F)c3)n2)cc1 [Compound I-9, 4-(2-((3-fluoro-4-((4-(oxetan-3-yl)piperazin-1-yl)methyl)phenyl)amino)pyrimidin-4-yl)-N-hydroxybenzamide] | < 1000 | induce acetylation of α-tubulin in SH-SY5Y neuroblastoma cells in a dose-dependent manner | 
5 | O=C(NO)c1ccc(-c2ccnc(N3CCC4(CC3)COC4)n2)cc1 [Compound I-25, 4-(2-(2-oxa-7-azaspiro[3.5]nonan-7-yl)pyrimidin-4-yl)-N-hydroxybenzamide] | < 1000 | induce acetylation of α-tubulin in SH-SY5Y neuroblastoma cells in a dose-dependent manner | 
6 | O=C1NCC2(CCN(c3nccc(-c4ccc(C(=O)NO)cc4)n3)CC2)O1 [Compound I-26, N-hydroxy-4-(2-(2-oxo-1-oxa-3,8-diazaspiro[4.5]decan-8-yl)pyrimidin-4-yl)benzamide] | < 1000 | induce acetylation of α-tubulin in SH-SY5Y neuroblastoma cells in a dose-dependent manner | 
7 | O=C(NO)c1ccc(-c2ccnc(N3CCC(F)(F)CC3)n2)cc1 [Compound I-27, 4-(2-(4,4-difluoropiperidin-1-yl)pyrimidin-4-yl)-N-hydroxybenzamide] | < 1000 | induce acetylation of α-tubulin in SH-SY5Y neuroblastoma cells in a dose-dependent manner | 
8 | Cn1cc(CNCC2CCN(c3ncc(C(=O)NO)cn3)CC2)c2ccccc21 [Quisinostat, reference compound] |  |  | IC50 (HDAC10): 8.37 nM
